We go through 50 molecules from the PolyMetriX glass transition set.

On to `*C(=O)c1ccc2c(c1)C(=O)N(c1ccc(Oc3ccc(C(=O)c4cccc(C(=O)c5ccc(Oc6ccc(N7C(=O)c8ccc(*)cc8C7=O)cc6)cc5)c4)cc3)cc1)C2=O` (repeat unit), for which the glass transition temperature was determined as 222.00 °C. To `*CCCCCCCCCCN1C(=O)c2ccc(C(c3ccc4c(c3)C(=O)N(*)C4=O)(C(F)(F)F)C(F)(F)F)cc2C1=O` (repeat unit) belongs 123.00 °C; to `*CCCCCCCCCN1C(=O)c2ccc(C(c3ccc4c(c3)C(=O)N(*)C4=O)(C(F)(F)F)C(F)(F)F)cc2C1=O` (repeat unit), 135.00 °C; to `*CCCCCCCCN1C(=O)c2ccc(C(c3ccc4c(c3)C(=O)N(*)C4=O)(C(F)(F)F)C(F)(F)F)cc2C1=O` (repeat unit), 155.00 °C. With `*CCCCCCCCc1nc2cc(-c3ccc4[nH]c(*)nc4c3)ccc2[nH]1` (repeat unit), the glass transition temperature was determined as 234.00 °C.

Consider `*CCCCCCN1C(=O)c2ccc(C(c3ccc4c(c3)C(=O)N(*)C4=O)(C(F)(F)F)C(F)(F)F)cc2C1=O` (repeat unit), for which the glass transition temperature turned out to be 155.00 °C. As for `*CCCCCN1C(=O)c2ccc(C(c3ccc4c(c3)C(=O)N(*)C4=O)(C(F)(F)F)C(F)(F)F)cc2C1=O` (repeat unit), the glass transition temperature came out at 180.00 °C. In turn, `*CCCN1C(=O)c2ccc(C(c3ccc4c(c3)C(=O)N(*)C4=O)(C(F)(F)F)C(F)(F)F)cc2C1=O` (repeat unit) came in with a glass transition temperature of 190.00 °C. `*CCN1C(=O)c2ccc(C(c3ccc4c(c3)C(=O)N(*)C4=O)(C(F)(F)F)C(F)(F)F)cc2C1=O` (repeat unit): the glass transition temperature was determined as 180.00 °C. To `*Oc1ccc(C(C)(C)c2ccc(Oc3ccc4c(=O)n5c6cc(-c7ccc8c(c7)nc7c9ccc(*)c%10cccc(c(=O)n87)c%109)ccc6nc5c5cccc3c45)cc2)cc1` (repeat unit) belongs 380.00 °C. To `*Oc1ccc(C(C)(C)c2ccc(Oc3ccc4c(=O)n5c6cc(Oc7ccc8c(c7)nc7c9ccc(*)c%10cccc(c(=O)n87)c%109)ccc6nc5c5cccc3c45)cc2)cc1` (repeat unit) belongs 334.00 °C; to `*Oc1ccc(C2(c3ccc(Oc4ccc(C(=O)c5cccc(C(=O)c6ccc(*)cc6)c5)cc4)cc3)CCC3CCCCC3C2)cc1` (repeat unit), 194.00 °C. Turning to `*Oc1ccc2cc(Oc3ccc(S(=O)(=O)c4ccc(*)cc4)cc3)ccc2c1` (repeat unit), the glass transition temperature amounted to 231.00 °C. To `*Oc1cccc(Oc2ccc(S(=O)(=O)c3ccc(*)cc3)cc2)c1` (repeat unit) belongs 177.00 °C; to `*Oc1ccccc1Oc1ccc(S(=O)(=O)c2ccc(*)cc2)cc1` (repeat unit), 171.00 °C.

As for `*Sc1ccc(P(=O)(c2ccccc2)c2ccc(Sc3ccc(-c4ccc(*)cc4)cc3)cc2)cc1` (repeat unit), the glass transition temperature worked out at 232.00 °C.

The molecule `*c1cc(Br)c(Oc2c(Br)cc(N3C(=O)c4ccc(-c5ccc6c(c5)C(=O)N(*)C6=O)cc4C3=O)cc2Br)c(Br)c1` (repeat unit) had a glass transition temperature of 287.00 °C. To `*c1cc(N2C(=O)c3ccc(-c4ccc5c(c4)C(=O)N(*)C5=O)cc3C2=O)c(O)cc1O` (repeat unit) belongs 343.00 °C. Regarding `*c1ccc(*)c(C(=O)c2ccc(C)cc2)c1` (repeat unit), the glass transition temperature came to 202.00 °C. To `*c1ccc(*)c(C(=O)c2ccc(F)cc2)c1` (repeat unit) belongs 194.00 °C; to `*c1ccc(-c2ccc(N3C(=O)c4ccc(-c5cccc6c5C(=O)N(*)C6=O)cc4C3=O)cc2C(F)(F)F)c(C(F)(F)F)c1` (repeat unit), 346.00 °C; to `*c1ccc(C(c2ccc(N3C(=O)c4ccc(-c5ccc6c(c5)C(=O)N(*)C6=O)cc4C3=O)cc2)(C(F)(F)F)C(F)(F)F)cc1` (repeat unit), 343.00 °C. With `*c1ccc(Cc2ccc(N3C(=O)c4ccc(S(=O)(=O)c5ccc6c(c5)C(=O)N(*)C6=O)cc4C3=O)cc2)cc1` (repeat unit), the glass transition temperature worked out at 319.00 °C.

`*c1ccc(N2C(=O)c3ccc(C(c4ccc5c(c4)C(=O)N(c4ccc(N6C(=O)c7ccc(-c8ccc9c(c8)C(=O)N(*)C9=O)cc7C6=O)cc4)C5=O)(C(F)(F)F)C(F)(F)F)cc3C2=O)cc1` (repeat unit) returned a glass transition temperature of 342.00 °C. To `*c1ccc(OCC2CCC(COc3ccc(N4C(=O)c5ccc(-c6ccc7c(c6)C(=O)N(*)C7=O)cc5C4=O)cc3)CC2)cc1` (repeat unit) belongs 254.40 °C; to `*c1ccc(Oc2ccc(C(=O)c3cccc(C(=O)c4ccc(Oc5ccc(-n6c(=O)c7cc8c(=O)n(*)c(=O)c8cc7c6=O)cc5C(F)(F)F)cc4)n3)cc2)c(C(F)(F)F)c1` (repeat unit), 227.10 °C. For the molecule `*c1ccc(Oc2ccc(C(=O)c3cccc(C(=O)c4ccc(Oc5ccc(N6C(=O)c7ccc(Oc8ccc(Oc9ccc(Oc%10ccc%11c(c%10)C(=O)N(*)C%11=O)cc9)cc8)cc7C6=O)cc5)cc4)c3)cc2)cc1` (repeat unit), the glass transition temperature stood at 192.00 °C. To `*c1ccc(Oc2ccc(C(=O)c3cccc(C(=O)c4ccc(Oc5ccc(N6C(=O)c7ccc(Oc8ccc9c(c8)C(=O)N(*)C9=O)cc7C6=O)cc5C(F)(F)F)cc4)n3)cc2)c(C(F)(F)F)c1` (repeat unit) belongs 212.20 °C; to `*c1ccc(Oc2ccc(C3(c4ccc(Oc5ccc(N6C(=O)c7ccc(Oc8ccc(C9(c%10ccc(Oc%11ccc%12c(c%11)C(=O)N(*)C%12=O)cc%10)CCC(C(C)(C)C)CC9)cc8)cc7C6=O)cc5)cc4)CC4CC3C3CCCC43)cc2)cc1` (repeat unit), 257.00 °C; to `*c1ccc(Oc2ccc3ccc(Oc4ccc(-n5c(=O)c6cc7c(=O)n(*)c(=O)c7cc6c5=O)cc4)cc3c2)cc1` (repeat unit), 320.80 °C.

The molecule `*c1ccc(Oc2cccc(Oc3ccc(N4C(=O)c5ccc(Oc6ccc(C(C)(C)c7ccc(Oc8ccc9c(c8)C(=O)N(*)C9=O)cc7)cc6)cc5C4=O)cc3)c2)cc1` (repeat unit) returned a glass transition temperature of 246.00 °C. To `*c1ccc(S(=O)(=O)c2ccc(-n3c(=O)c4cc5c(=O)n(*)c(=O)c5cc4c3=O)cc2)cc1` (repeat unit) belongs 350.00 °C.

`*c1ccc(S(=O)(=O)c2ccc(-n3nc(-c4ccccc4)c4ccc(S(=O)(=O)c5ccc6c(-c7ccccc7)nn(*)c(=O)c6c5)cc4c3=O)cc2)cc1` (repeat unit) registered a glass transition temperature of 422.00 °C. To `*c1ccc(Sc2ccc(-n3c(=O)c4cc5c(=O)n(*)c(=O)c5cc4c3=O)cc2)cc1` (repeat unit) belongs 400.00 °C; to `*c1ccc(Sc2ccc(Oc3ccc(Sc4ccc(N5C(=O)c6ccc(Oc7ccc(C(C)(C)c8ccc(Oc9ccc%10c(c9)C(=O)N(*)C%10=O)cc8)cc7)cc6C5=O)cc4)cc3)cc2)cc1` (repeat unit), 199.00 °C; to `*c1ccc(Sc2ccc(Sc3ccc(Sc4ccc(-n5c(=O)c6cc7c(=O)n(*)c(=O)c7cc6c5=O)cc4)cc3)cc2)cc1` (repeat unit), 234.1 °C. To `*c1ccc(Sc2ccc(Sc3ccc(Sc4ccc(S(*)(=O)=O)cc4S(=O)(=O)O)cc3)cc2)c(S(=O)(=O)O)c1` (repeat unit) belongs 202.00 °C; to `*c1ccc(Sc2ccc(Sc3ccc(Sc4ccc(S(*)=O)cc4)cc3)cc2)cc1` (repeat unit), 133.00 °C. To `*c1ccc([Si](*)(C)C)s1` (repeat unit) belongs 21.00 °C. `*c1ccc2c(c1)C(=O)N(C1CCC(CC3CCC(N4C(=O)c5ccc(C(*)(C(F)(F)F)C(F)(F)F)cc5C4=O)CC3)CC1)C2=O` (repeat unit) showed a glass transition temperature of 265.00 °C. To `*c1ccc2c(c1)C(=O)N(c1cc(C(c3ccc(O)c(N4C(=O)c5ccc(C(*)(C(F)(F)F)C(F)(F)F)cc5C4=O)c3)(C(F)(F)F)C(F)(F)F)ccc1O)C2=O` (repeat unit) belongs 330.00 °C; to `*c1ccc2c(c1)C(=O)N(c1ccc(C(c3ccc(N4C(=O)c5ccc(C(*)(C(F)(F)F)C(F)(F)F)cc5C4=O)cc3)(C(F)(F)F)C(F)(F)F)cc1)C2=O` (repeat unit), 315.10 °C.

In the case of `*c1ccc2c(c1)C(=O)N(c1ccc(C(c3ccccc3)(c3ccc(N4C(=O)c5ccc(C(*)(C(F)(F)F)C(F)(F)F)cc5C4=O)cc3)C(F)(F)F)cc1)C2=O` (repeat unit), the glass transition temperature amounted to 305.00 °C. To `*c1ccc2c(c1)C(=O)N(c1ccc(C3(c4ccc(N5C(=O)c6ccc(C(*)(C(F)(F)F)C(F)(F)F)cc6C5=O)cc4)c4ccccc4-c4ccccc43)cc1)C2=O` (repeat unit) belongs 370.00 °C. To `*c1ccc2c(c1)C(=O)N(c1ccc(Cc3ccc(N4C(=O)c5ccc(C(*)(C(F)(F)F)C(F)(F)F)cc5C4=O)cc3)cc1)C2=O` (repeat unit) belongs 297.00 °C; to `*c1ccc2c(c1)C(=O)N(c1ccc(NC(=O)C(F)(F)C(F)(F)C(F)(F)C(F)(F)C(F)(F)C(F)(F)C(=O)Nc3ccc(N4C(=O)c5ccc(C(*)(C(F)(F)F)C(F)(F)F)cc5C4=O)cc3)cc1)C2=O` (repeat unit), 265.00 °C. To `*c1ccc2c(c1)C(=O)N(c1ccc(OCCN(CCOc3ccc(N4C(=O)c5ccc(C(*)(C(F)(F)F)C(F)(F)F)cc5C4=O)cc3)c3ccccc3)cc1)C2=O` (repeat unit) belongs 170.00 °C; to `*c1ccc2c(c1)C(=O)N(c1ccc(Oc3ccc(C(=O)c4cccc(C(=O)c5ccc(Oc6ccc(N7C(=O)c8ccc(C(*)(C(F)(F)F)C(F)(F)F)cc8C7=O)cc6)cc5)c4)cc3)cc1)C2=O` (repeat unit), 236.00 °C. In the case of `*c1ccc2nc(-c3ccc4c(c3)C(=O)N(c3cc(C(*)(C(F)(F)F)C(F)(F)F)ccc3O)C4=O)oc2c1` (repeat unit), the glass transition temperature turned out to be 329.00 °C. To `*c1cccc(N2C(=O)c3cccc(Oc4ccc(C(C)(C)c5ccc(Oc6cccc7c6C(=O)N(*)C7=O)cc5)cc4)c3C2=O)c1` (repeat unit) belongs 227.50 °C.
